{"source": "ChEMBL document CHEMBL1146420", "about": "“Isolation and characterization of 1,3-dimethylisoguanine from the Bermudian sponge Amphimedon viridis” (J Nat Prod, 1997)", "assay": "Cytotoxicity against human ovarian cancer cells", "type": "functional, cell-based", "conditions": "Cancer cell lines", "data": [{"smiles": "Cn1c(=N)c2nc[nH]c2n(C)c1=O", "values": [{"measurement": "IC50", "value": 2.1, "unit": "µg/mL"}]}]}
